{"source": "paper PMC8846325", "about": "“A Photoactivable Natural Product with Broad Antiviral Activity against Enveloped Viruses, Including Highly Pathogenic Coronaviruses” (Antimicrobial Agents and Chemotherapy, 2022)", "format_in_all_cases": "cell-based", "key": {"[1]": {"system": "SARS-CoV-2"}, "[2]": {"experiment": "MTS cell toxicity assay, Huh-7 cells", "conditions": "human, Huh-7 cells, 24 h, light exposure; read-out: CC50 (μM) 24 h", "experimental": "(§1) A total of 6 × 10^4 Huh-7, Vero-E6, and Vero-81 cells were seeded in 96-well plates and incubated for 16 h at 37°C in a 5% CO2 incubator. The cells were then treated with increasing concentrations of the compound of interest. One hour after inoculation, cells were taken out of the incubator to be exposed to the white light of a biosafety cabinet (BSC) for 10 min, after which cells were further incubated in the dark at 37°C and 5% CO2 for 23 h. The BSC’s light source lamp consists of one fluorescent tube of 36 W, 3,350 lumen, white light. An MTS [3-(4,5-dimethylthiazol-2-yl)-5-(3-carboxymethoxyphenyl)-2-(4-sulfophenyl)-2H-tetrazolium]-based viability assay (Cell Titer 96 aqueous nonradioactive cell proliferation assay; Promega) was performed as recommended by the manufacturer. The absorbance of formazan at 490 nm was detected using a plate reader (ELX 808 Bio-Tek Instruments Inc.). Each measure was performed in triplicate, and each experiment was repeated at least 3 times.\n(§2) 6×104 Huh-7, Vero-E6 and Vero-81 cells were seeded in 96-well plates and incubated for 16 h at 37 °C 5% CO2 incubator. The cells were then treated with increasing concentrations of the compound of interest. One hour after inoculation, cells were either left in the incubator (dark condition) or taken out to be exposed to the white light of the biosafety cabinet (BSC) for 10 min (light condition), after which cells were further incubated in the dark at 37 °C 5% CO2 for 23 h. BSC’s light source lamp consists of one fluorescent tube of 36W, 3350 lumen white light. An MTS [3-(4,5-dimethylthiazol-2-yl)-5-(3-carboxymethoxyphenyl)-2-(4-sulfophenyl)- 2H-tetrazolium]-based viability assay (Cell Titer 96 Aqueous non-radioactive cell proliferation assay, Promega) was performed as recommended by the manufacturer. The absorbance of formazan at 490 nm was detected using a plate reader (ELX 808 Bio-Tek […]\n(§3) Instruments Inc). […]"}, "[3]": {"system": "HCoV-229E", "experiment": "HCoV-229E-Luc infection inhibition luciferase assay", "conditions": "for light dependence of antiviral effect: HCoV-229E, light versus dark; for antiviral activity against HCoV-229E-Luc, screening of related compounds: Huh-7 cells, 1, 5, 10 µM, light exposure"}, "[4]": {"system": "HCoV-229E", "experiment": "Quencher assay (singlet oxygen quenchers)", "conditions": "quencher 10 mM, Pba 0.5 or 1 μM"}, "[5]": {"system": "Huh-7 cells", "experiment": "MTS cell toxicity assay, Huh-7 cells", "experimental": "as §1, §2, §3"}}, "note": "Where two headings read alike, the source gives them in different places.", "data": [{"compound": "CCN(CC)CCCC(C)Nc1ccnc2cc(Cl)ccc12", "note": "(stereo not shown) [chloroquine, reference compound]", "values": [{"measurement": "infectivity relative to normal levels, compound added more than 2 h after inoculation", "setting": "[1]", "result": "around 60%"}]}, {"compound": "C=Cc1c(C)c2cc3nc(c(CC(=O)O)c4[nH]c(cc5nc(cc1[nH]2)C(C)=C5CC)c(C)c4C(=O)O)[C@@H](CCC(=O)O)[C@@H]3C", "note": "[Chlorin e6, chlorin e6]", "values": [{"measurement": "CC50 at 24 h", "setting": "[2]", "result": 21.4, "unit": "µM"}, {"measurement": "light dependence of antiviral effect", "setting": "[3]", "result": "light-dependent antiviral effect"}, {"measurement": "IC50", "setting": "[3]; Human coronavirus 229E, Huh-7", "result": 720, "unit": "nM"}]}, {"compound": "Cc1c(C)c2c(c(C)c1O)CCC(C)(C(=O)O)O2", "note": "(stereo not shown) [Trolox]", "values": [{"measurement": "effect of quencher on antiviral action of Pba", "setting": "[4]", "result": "able to reduce the action of Pba"}]}, {"compound": "C1=Cc2nc1cc1ccc([nH]1)c(-c1ccccc1)c1nc(cc3ccc([nH]3)c2-c2ccccc2)C=C1", "note": "[5,15-DPP]", "values": [{"measurement": "antiviral activity against HCoV-229E-Luc, screening of related compounds", "setting": "[3]", "result": "not active at the tested concentrations"}]}, {"compound": "hemin chloride", "values": [{"measurement": "antiviral activity against HCoV-229E-Luc, screening of related compounds", "setting": "[3]", "result": "moderate antiviral activity"}]}, {"compound": "C=Cc1c(C)c2cc3nc(c4c5[nH]c(cc6nc(cc1[nH]2)C(C)=C6CC)c(C)c5C(=O)C4)[C@@H](CCC(=O)O)[C@@H]3C", "note": "[PyroPba, pyropheophorbide a]", "values": [{"measurement": "toxicity on Huh-7 cells, screening of related compounds", "setting": "[5]; 5, 10, and 25 µM, light", "result": "toxic at tested concentrations"}, {"measurement": "CC50 at 24 h", "setting": "[2]", "result": 2.67, "unit": "µM"}, {"measurement": "light dependence of antiviral effect", "setting": "[3]", "result": "light-dependent antiviral effect"}, {"measurement": "IC50", "setting": "[3]; Human coronavirus 229E, Huh-7", "result": 350, "unit": "nM"}]}, {"compound": "N-methyl protoporphyrin IX", "values": [{"measurement": "CC50", "setting": "[5]; Huh-7 cells, 24 h, light exposure", "result": "> 80", "unit": "µM"}, {"measurement": "light dependence of antiviral effect", "setting": "[3]", "result": "light-dependent antiviral effect"}, {"measurement": "antiviral activity under dark conditions", "setting": "[3]; Huh-7 cells, dark", "result": "showed antiviral activity under dark conditions"}, {"measurement": "IC50", "setting": "[3]; against HCoV-229E, Huh-7 cells, normal white light exposure, read-out: IC50", "result": 1210, "unit": "nM"}]}, {"compound": "Oc1cccc(-c2c3nc(c(-c4cccc(O)c4)c4ccc([nH]4)c(-c4cccc(O)c4)c4nc(c(-c5cccc(O)c5)c5ccc2[nH]5)CC4)C=C3)c1", "note": "[temoporfin]", "values": [{"measurement": "antiviral activity against HCoV-229E-Luc, screening of related compounds", "setting": "[3]", "result": "moderate antiviral activity"}]}]}
